Experimental data from patent publication US20260201008A1, “SECRETIN-DERIVED GLP1R SELECTIVE AGONISTS” (GUBRA A/S, priority 2023, published 2026).
Where two headings read alike, the source gives them in different places. Numbered stars: 1 amine (or outer) side, 2 acyl side, 3 side chain; on linkers, the order of the positions; unused ones are H or OH. Square brackets hold non-standard residues; d marks the D form. Side chains are listed from the residue outwards. Peptide text beside a SMILES is read from it. * marks the point of attachment. C20 diacid = O=C(O)CCCCCCCCCCCCCCCCCCC(=O)*; γGlu = O=C(O)[C@H](CCC(=O)[*:2])N[*:1]; AEEA = NCCOCCOCC(=O)O; Aib = CC(C)(N)C(=O)O

Key:
[1] = Turbidity of crude library peptides (absorbance at 600 nm); type: physicochemical; settings: Physical stability of peptides
Method in brief: (§1)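 Turbidity is the absorbance at 600 nm, taken before heating. Fibril signal is the mean ThT emission at 480 nm (450 nm excitation), read every 10 min over 72 h at 40° C with 700 rpm shaking between reads. Peptides at 267 μM, pH 4.0 acetate or pH 7.0 phosphate buffer (50 mM), 4 μM ThT final.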

[2] = Fibril formation of crude library peptides (Thioflavin T); type: physicochemical; design: key: average ThT fluorescence emission at 480 nm (ex 450 nm), raw units; settings: Physical stability of peptides
Method in brief: as §1

[3] = biological target: GLP1R (Homo sapiens, UniProt P43220); assay: hGLP1R potency, cAMP accumulation in CHO-K1 cells stably overexpressing hGLP1R; type: cell-based; design: host or cells: CHO-K1; settings: for Selectivity: SCTR EC50/GLP1R EC50 ratio; for EC50: cAMP accumulation, CHO-K1 cells overexpressing hGLP1R; for SCTR EC50/GLP1R EC50 ratio: selectivity for hGLP1R over hSCTR, cAMP accumulation in CHO-K1 cells
Method in brief: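 2000 cells/well, DPBS + 0.05% casein + 0.5 mM IBMX; 30 min RT stimulation; HTRF cAMP detection after 1 h. Purified: 3-fold ×11, n=2; crude: 10-fold ×5, n=1. EC50 by variable-slope fit.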

[4] = biological target: SCTR (Homo sapiens, UniProt P47872); assay: hSCTR potency, cAMP accumulation in CHO-K1 cells stably overexpressing hSCTR; type: cell-based; design: alternatively Euroscreen ES-712-AF; FAST-0161L; host or cells: CHO-K1; settings: cAMP accumulation, CHO-K1 cells overexpressing hSCTR
Method in brief: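 Thawed CHO-K1 cells carrying stable hSCTR are plated into casein/IBMX buffer (0.05%, 0.5 mM), dosed immediately for 30 min at room temperature, then cAMP is detected by TR-FRET. Purified peptides run as 11 three-fold dilutions in duplicate, and curves are fitted with variable slope.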

[5] = read-out: pEC50 hGLPR1 (converted)
[6] = read-out: pEC50 hSCTR (converted)
[7] = read-out: hGLP1R pEC50 (converted)
[8] = read-out: hSCTR pEC50 (converted)

Chain of SCTR (P47872 23-440): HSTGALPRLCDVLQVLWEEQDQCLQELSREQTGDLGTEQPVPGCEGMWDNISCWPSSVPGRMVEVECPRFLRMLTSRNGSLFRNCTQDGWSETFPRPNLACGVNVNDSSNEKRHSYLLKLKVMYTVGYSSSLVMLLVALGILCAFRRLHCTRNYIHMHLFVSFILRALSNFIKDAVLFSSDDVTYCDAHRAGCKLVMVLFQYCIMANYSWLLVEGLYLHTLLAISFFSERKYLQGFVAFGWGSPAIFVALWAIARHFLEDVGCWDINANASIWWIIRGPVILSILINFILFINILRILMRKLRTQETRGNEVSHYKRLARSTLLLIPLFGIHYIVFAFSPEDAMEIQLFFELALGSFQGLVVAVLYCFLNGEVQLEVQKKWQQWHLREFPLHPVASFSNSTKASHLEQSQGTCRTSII
Chain of GLP1R (P43220 24-463): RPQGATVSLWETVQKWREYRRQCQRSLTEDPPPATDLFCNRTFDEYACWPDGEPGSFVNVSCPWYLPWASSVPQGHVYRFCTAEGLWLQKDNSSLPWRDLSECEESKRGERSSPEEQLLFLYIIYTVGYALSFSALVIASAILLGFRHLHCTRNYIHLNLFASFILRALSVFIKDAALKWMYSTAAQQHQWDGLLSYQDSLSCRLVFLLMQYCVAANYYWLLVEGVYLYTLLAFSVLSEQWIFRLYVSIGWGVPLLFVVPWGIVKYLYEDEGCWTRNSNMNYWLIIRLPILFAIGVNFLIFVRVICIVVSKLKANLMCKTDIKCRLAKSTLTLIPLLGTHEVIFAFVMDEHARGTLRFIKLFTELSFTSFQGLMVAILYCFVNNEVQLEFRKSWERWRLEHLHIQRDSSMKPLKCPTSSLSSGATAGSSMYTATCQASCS

| Turbidity (pH 7) [1] | Fibril formation [2] | Selectivity [3] | EC50 [3, 5] [pM] | EC50 [4, 6] [nM] | EC50 [3, 7] [pM] | SCTR EC50/GLP1R EC50 ratio [3] | EC50 [4, 8] [nM] | SMILES |
| --- | --- | --- | --- | --- | --- | --- | --- | --- |
| 0.08 | 2766 | – | – | – | 5.01 | 693266 | 3160 | CC(C)C[C@H](NC(=O)[C@H](Cc1ccccc1)NC(=O)[C@H](CCCNC(=N)N)NC(=O)[C@H](CCC(N)=O)NC(=O)[C@H](CCC(=O)O)NC(=O)C(C)(C)NC(=O)[C@H](C)NC(=O)[C@H](CCC(=O)O)NC(=O)[C@H](CCC(=O)O)NC(=O)[C@H](CCCCNC(=O)COCCOCCNC(=O)COCCOCCNC(=O)CC[C@H](NC(=O)CCCCCCCCCCCCCCCCCCC(=O)O)C(=O)O)NC(=O)[C@H](CC(C)C)NC(=O)[C@H](Cc1ccc(O)cc1)NC(=O)[C@H](CO)NC(=O)[C@@H](NC(=O)[C@H](CC(=O)O)NC(=O)[C@H](CO)NC(=O)[C@@H](NC(=O)[C@H](Cc1ccccc1)NC(=O)[C@@H](NC(=O)CNC(=O)[C@H](CCC(=O)O)NC(=O)C(C)(C)NC(=O)[C@@H](N)Cc1c[nH]cn1)[C@@H](C)O)[C@@H](C)O)C(C)C)C(=O)N[C@@H](CCC(=O)O)C(=O)N[C@@H](Cc1c[nH]cn1)C(=O)N[C@@H](CC(C)C)C(=O)N[C@H](C(N)=O)C(C)C [compound 150] (H-H[Aib]EGTFTSDVSYLK([AEEA-AEEA-γGlu-C20 diacid])EEA[Aib]EQRFLEHLV-NH2) |
| 0.08 | 3918 | – | – | – | 2.51 | 789678 | 2000 | CC(C)C[C@H](NC(=O)[C@H](Cc1ccccc1)NC(=O)[C@H](CCCNC(=N)N)NC(=O)[C@H](CCC(N)=O)NC(=O)[C@H](C)NC(=O)C(C)(C)NC(=O)[C@H](C)NC(=O)[C@H](CCC(=O)O)NC(=O)[C@H](CCC(=O)O)NC(=O)[C@H](CCCCNC(=O)COCCOCCNC(=O)COCCOCCNC(=O)CC[C@H](NC(=O)CCCCCCCCCCCCCCCCCCC(=O)O)C(=O)O)NC(=O)[C@H](CC(C)C)NC(=O)[C@H](Cc1ccc(O)cc1)NC(=O)[C@H](CO)NC(=O)[C@@H](NC(=O)[C@H](CC(=O)O)NC(=O)[C@H](CO)NC(=O)[C@@H](NC(=O)[C@H](Cc1ccccc1)NC(=O)[C@@H](NC(=O)CNC(=O)[C@H](CCC(=O)O)NC(=O)C(C)(C)NC(=O)[C@@H](N)Cc1c[nH]cn1)[C@@H](C)O)[C@@H](C)O)C(C)C)C(=O)N[C@@H](CCC(=O)O)C(=O)N[C@@H](Cc1c[nH]cn1)C(=O)N[C@@H](CC(C)C)C(=O)N[C@H](C(N)=O)C(C)C [compound 146] (H-H[Aib]EGTFTSDVSYLK([AEEA-AEEA-γGlu-C20 diacid])EEA[Aib]AQRFLEHLV-NH2) |
| 0.09 | 2709 | – | – | – | 5.01 | 996093 | 5010 | CC(C)C[C@H](NC(=O)[C@H](Cc1ccccc1)NC(=O)[C@H](CCCNC(=N)N)NC(=O)[C@H](CCC(N)=O)NC(=O)[C@H](CC(N)=O)NC(=O)C(C)(C)NC(=O)[C@H](C)NC(=O)[C@H](CCC(=O)O)NC(=O)[C@H](CCC(=O)O)NC(=O)[C@H](CCCCNC(=O)COCCOCCNC(=O)COCCOCCNC(=O)CC[C@H](NC(=O)CCCCCCCCCCCCCCCCCCC(=O)O)C(=O)O)NC(=O)[C@H](CC(C)C)NC(=O)[C@H](Cc1ccc(O)cc1)NC(=O)[C@H](CO)NC(=O)[C@@H](NC(=O)[C@H](CC(=O)O)NC(=O)[C@H](CO)NC(=O)[C@@H](NC(=O)[C@H](Cc1ccccc1)NC(=O)[C@@H](NC(=O)CNC(=O)[C@H](CCC(=O)O)NC(=O)C(C)(C)NC(=O)[C@@H](N)Cc1c[nH]cn1)[C@@H](C)O)[C@@H](C)O)C(C)C)C(=O)N[C@@H](CCC(=O)O)C(=O)N[C@@H](Cc1c[nH]cn1)C(=O)N[C@@H](CC(C)C)C(=O)N[C@H](C(N)=O)C(C)C [compound 131] (H-H[Aib]EGTFTSDVSYLK([AEEA-AEEA-γGlu-C20 diacid])EEA[Aib]NQRFLEHLV-NH2) |

Further lines, the molecule ahead of its results:

| SMILES | Turbidity (pH 7) [1] | Fibril formation [2] | Selectivity [3] | EC50 [3, 5] [pM] | EC50 [4, 6] [nM] | EC50 [3, 7] [pM] | SCTR EC50/GLP1R EC50 ratio [3] | EC50 [4, 8] [nM] |
| --- | --- | --- | --- | --- | --- | --- | --- | --- |
| CC(C)C[C@H](NC(=O)[C@H](CCC(=O)O)NC(=O)[C@H](CCCCNC(=O)COCCOCCNC(=O)COCCOCCNC(=O)CC[C@H](NC(=O)CCCCCCCCCCCCCCCCCCC(=O)O)C(=O)O)NC(=O)[C@H](CC(C)C)NC(=O)[C@@H](NC(=O)[C@H](CO)NC(=O)[C@@H](NC(=O)[C@H](CC(=O)O)NC(=O)[C@H](CO)NC(=O)[C@@H](NC(=O)[C@H](Cc1ccccc1)NC(=O)[C@@H](NC(=O)CNC(=O)[C@H](CCC(=O)O)NC(=O)C(C)(C)NC(=O)[C@@H](N)Cc1c[nH]cn1)[C@@H](C)O)[C@@H](C)O)C(C)C)[C@@H](C)O)C(=O)N[C@@H](C)C(=O)N[C@@H](C)C(=O)N[C@H](C(=O)N[C@@H](CCC(N)=O)C(=O)N[C@@H](CCCNC(=N)N)C(=O)N[C@@H](Cc1ccccc1)C(=O)N[C@@H](CC(C)C)C(=O)N[C@@H](CCC(=O)O)C(=O)N[C@@H](Cc1c[nH]cn1)C(=O)N[C@@H](CC(C)C)C(=O)N[C@H](C(N)=O)C(C)C)[C@@H](C)O [compound 67] (H-H[Aib]EGTFTSDVSTLK([AEEA-AEEA-γGlu-C20 diacid])ELAATQRFLEHLV-NH2) | 0.08 | 5041 | 7155 | 50.1 | 398 | – | – | – |
| CC(C)C[C@H](NC(=O)[C@H](Cc1ccccc1)NC(=O)[C@H](CCCNC(=N)N)NC(=O)[C@H](CCC(N)=O)NC(=O)[C@H](CC(C)C)NC(=O)C(C)(C)NC(=O)[C@H](C)NC(=O)[C@H](CCC(=O)O)NC(=O)[C@H](CCC(=O)O)NC(=O)[C@H](CCCCNC(=O)COCCOCCNC(=O)COCCOCCNC(=O)CC[C@H](NC(=O)CCCCCCCCCCCCCCCCCCC(=O)O)C(=O)O)NC(=O)[C@H](CC(C)C)NC(=O)[C@H](Cc1ccc(O)cc1)NC(=O)[C@H](CO)NC(=O)[C@@H](NC(=O)[C@H](CC(=O)O)NC(=O)[C@H](CO)NC(=O)[C@@H](NC(=O)[C@H](Cc1ccccc1)NC(=O)[C@@H](NC(=O)CNC(=O)[C@H](CCC(=O)O)NC(=O)[C@H](C)NC(=O)[C@@H](N)Cc1c[nH]cn1)[C@@H](C)O)[C@@H](C)O)C(C)C)C(=O)N[C@@H](CCC(=O)O)C(=O)N[C@@H](Cc1c[nH]cn1)C(=O)N[C@@H](CC(C)C)C(=O)N[C@H](C(N)=O)C(C)C [compound 166] (H-HAEGTFTSDVSYLK([AEEA-AEEA-γGlu-C20 diacid])EEA[Aib]LQRFLEHLV-NH2) | 0.08 | 4253 | – | – | – | 7.94 | 41476 | 316 |
| CC(C)C[C@H](NC(=O)[C@H](Cc1ccccc1)NC(=O)[C@H](CCCNC(=N)N)NC(=O)[C@H](CCC(N)=O)NC(=O)[C@H](CCC(N)=O)NC(=O)[C@H](C)NC(=O)[C@H](C)NC(=O)[C@H](CCC(=O)O)NC(=O)[C@H](CCC(=O)O)NC(=O)[C@H](CCCCNC(=O)COCCOCCNC(=O)COCCOCCNC(=O)CC[C@H](NC(=O)CCCCCCCCCCCCCCCCCCC(=O)O)C(=O)O)NC(=O)[C@H](CC(C)C)NC(=O)[C@H](CCC(=O)O)NC(=O)[C@H](CO)NC(=O)[C@@H](NC(=O)[C@H](CC(=O)O)NC(=O)[C@H](CO)NC(=O)[C@@H](NC(=O)[C@H](Cc1ccccc1)NC(=O)[C@@H](NC(=O)CNC(=O)[C@H](CCC(=O)O)NC(=O)C(C)(C)NC(=O)[C@@H](N)Cc1c[nH]cn1)[C@@H](C)O)[C@@H](C)O)C(C)C)C(=O)N[C@@H](CCC(=O)O)C(=O)N[C@@H](Cc1c[nH]cn1)C(=O)N[C@@H](CC(C)C)C(=O)N[C@H](C(N)=O)C(C)C [compound 14] (H-H[Aib]EGTFTSDVSELK([AEEA-AEEA-γGlu-C20 diacid])EEAAQQRFLEHLV-NH2) | 0.08 | 10247 | 9917 | 20 | 200 | – | – | – |
| CC(C)C[C@H](NC(=O)[C@H](Cc1ccccc1)NC(=O)[C@H](CCCNC(=N)N)NC(=O)[C@H](CCC(N)=O)NC(=O)[C@H](C)NC(=O)[C@H](C)NC(=O)[C@H](C)NC(=O)C(C)(C)NC(=O)[C@H](CCC(=O)O)NC(=O)[C@H](CCCCNC(=O)COCCOCCNC(=O)COCCOCCNC(=O)CC[C@H](NC(=O)CCCCCCCCCCCCCCCCCCC(=O)O)C(=O)O)NC(=O)[C@H](CC(C)C)NC(=O)[C@H](CCCNC(=N)N)NC(=O)[C@H](CO)NC(=O)[C@@H](NC(=O)[C@H](CC(=O)O)NC(=O)[C@H](CO)NC(=O)[C@@H](NC(=O)[C@H](Cc1ccccc1)NC(=O)[C@@H](NC(=O)CNC(=O)[C@H](CCC(=O)O)NC(=O)C(C)(C)NC(=O)[C@@H](N)Cc1c[nH]cn1)[C@@H](C)O)[C@@H](C)O)C(C)C)C(=O)N[C@@H](CCC(=O)O)C(=O)N[C@@H](Cc1c[nH]cn1)C(=O)N[C@@H](CC(C)C)C(=O)N[C@H](C(N)=O)C(C)C [compound 81] (H-H[Aib]EGTFTSDVSRLK([AEEA-AEEA-γGlu-C20 diacid])E[Aib]AAAQRFLEHLV-NH2) | 0.08 | 10620 | 1217 | 79.4 | 79.4 | – | – | – |
